Laboratory results reported in US6762181B1, “Aminomethylpyrrolidine derivatives having aromatic substituents” (Daiichi Pharmaceutical Co., Ltd., priority 1999, dated 2004).
In brackets after ≈: the same amount, converted by molar mass. Where two headings read alike, the source gives them in different places.

Columns and labels:
Test in all cases: Antibacterial activity (MIC), Japan Society of Chemotherapy standard method
Assay type in all cases: cell-based
[1] = test system: S. aureus 870307
Method: (§1) Antibacterial activities of the compounds of the invention were measured in accordance with the standard method specified by the Japan Society of Chemotherapy, with the results shown in the following table as MIC values (μg/ml). In this connection, MIC values of levofloxacin (LVFX), ciprofloxacin (CPFX) and 5-amino-7-[3-(R)-[1-(S)-aminoethyl]pyrrolidin-1-yl]-6-fluoro-1-[2-(S)-fluoro-1-(R)-cyclopropyl]-8-methyl-1,4-dihydro-4-oxoquinoline-3-carboxylic acid (control drug 1) described in WO 9623782 are also shown for the sake of comparison with the MIC values of the compounds of the invention.

[2] = test system: Ps. aeruginosa 32121
Method: as §1

[3] = test system: S. flexneri 2A 5503
Method: as §1

[4] = test system: Str. pneumoniae J24
Method: as §1

[5] = test system: Ps. aeruginosa 32104
Method: as §1

[6] = test system: K. pneumoniae TYPE 1
Method: as §1

[7] = test system: Ser. marcescens 10100
Method: as §1

[8] = test system: S. epidermidis 56500
Method: as §1

[9] = test system: X. maltophilia IID 1275
Method: as §1

[10] = test system: E. faecalis ATCC 19433
Method: as §1

[11] = test system: Pr. Vulgaris O8601
Method: as §1

[12] = test system: E. coli NIHJ
Method: as §1

[13] = test system: Str. pyrogenes G-36
Method: as §1

[14] = test system: S. aureus FDA 209P
Method: as §1

[15] = Staphylococcus aureus, 870307, S. aureus 870307, read-out: MIC
[16] = Pseudomonas aeruginosa, 32121, Ps. aeruginosa 32121, read-out: MIC
[17] = Shigella flexneri, 2A5503, S. flexneri 2A 5503, read-out: MIC
[18] = Streptococcus pneumoniae, J24, Str. pneumoniae J24, read-out: MIC
[19] = Pseudomonas aeruginosa, 32104, Ps. aeruginosa 32104, read-out: MIC
[20] = Klebsiella pneumoniae, TYPE1, K. pneumoniae TYPE 1, read-out: MIC
[21] = Serratia marcescens, 10100, Ser. marcescens 10100, read-out: MIC
[22] = Staphylococcus epidermidis, read-out: MIC
[23] = Stenotrophomonas maltophilia, IID1275, X. maltophilia IID 1275, read-out: MIC
[24] = Enterococcus faecalis, ATCC19433, E. faecalis ATCC 19433, read-out: MIC
[25] = Proteus vulgaris, read-out: MIC
[26] = Escherichia coli, read-out: MIC
[27] = Staphylococcus aureus, FDA209P, read-out: MIC

Row | SMILES | MIC [1, 15] [µg/mL] | MIC [2, 16] [µg/mL] | MIC [3, 17] [µg/mL] | MIC [4, 18] [µg/mL] | MIC [5, 19] [µg/mL] | MIC [6, 20] [µg/mL] | MIC [7, 21] [µg/mL] | MIC [8, 22] [µg/mL] | MIC [9, 23] [µg/mL] | MIC [10, 24] [µg/mL] | MIC [11, 25] [µg/mL] | MIC [12, 26] [µg/mL] | MIC ([13]; read-out: MIC) [µg/mL] | MIC [14, 27] [µg/mL] | MIC ([1]; S. aureus 870307) [µg/mL] | MIC ([2]; Ps. aeruginosa 32121) [µg/mL] | MIC ([3]; S. flexneri 2A 5503) | MIC ([4]; Str. pneumoniae J24) | MIC ([5]; Ps. aeruginosa 32104) [µg/mL] | MIC ([6]; K. pneumoniae TYPE 1) [µg/mL] | further results
1 | Cc1c(N2CC[C@@H](C(N)c3ccccc3)C2)c(F)c(N)c2c(=O)c(C(=O)O)cn([C@@H]3C[C@@H]3F)c12 (stereo partly drawn) [Example 5, 5-Amino-7-[3-(R)-(1-Amino-1-Phenylmethyl)-1-Pyrrolidinyl]-6-Fluoro-1-[2-(S)-Fluoro-1-(R)-Cyclopropyl]-1,4-Dihydro-8-Methyl-4-Oxoquinoline-3-Carboxylic Acid] | ≤ 0.003 | 0.025 (≈ 0.0534 µM) | ≤ 0.003 | ≤ 0.003 | 0.1 (≈ 0.213 µM) | 0.013 (≈ 0.0277 µM) | 0.025 (≈ 0.0534 µM) | ≤ 0.003 | 0.025 (≈ 0.0534 µM) | 0.006 (≈ 0.0128 µM) | 0.013 (≈ 0.0277 µM) | ≤ 0.003 | ≤ 0.003 | ≤ 0.003 |  |  |  |  |  |  | 
2 | C[C@H]1COc2c(N3CCN(C)CC3)c(F)cc3c(=O)c(C(=O)O)cn1c23 [LVFX, levofloxacin, reference compound] | > 6.25 | 0.1 (≈ 0.277 µM) | 0.025 (≈ 0.0692 µM) | 0.78 (≈ 2.16 µM) | 0.2 (≈ 0.553 µM) | 0.1 (≈ 0.277 µM) | 0.1 (≈ 0.277 µM) | 0.39 (≈ 1.08 µM) | 0.39 (≈ 1.08 µM) | 0.78 (≈ 2.16 µM) | 0.13 (≈ 0.36 µM) | 0.013 (≈ 0.036 µM) | 0.2 (≈ 0.553 µM) | 0.2 (≈ 0.553 µM) |  |  |  |  |  |  | 
3 | Cc1c(N2CC[C@@H](C(N)c3cccnc3)C2)c(F)c(N)c2c(=O)c(C(=O)O)cn([C@@H]3C[C@@H]3F)c12 (stereo partly drawn) [Example 20, 5-Amino-7-(3-(R)-[1-amino-1-(3-pyridyl)methyl]-1-pyrrolidinyl)-6-fluoro-1-[(1R,2S)-2-fluorocyclopropyl]-1,4-dihydro-8-methyl-4-oxoquinoline-3-carboxylic acid] | 0.05 (≈ 0.106 µM) | 0.05 (≈ 0.106 µM) | 0.006 (≈ 0.0128 µM) | ≤ 0.003 | 0.2 (≈ 0.426 µM) | 0.05 (≈ 0.106 µM) | 0.1 (≈ 0.213 µM) | ≤ 0.003 | 0.2 (≈ 0.426 µM) | 0.025 (≈ 0.0532 µM) | 0.025 (≈ 0.0532 µM) | 0.006 (≈ 0.0128 µM) | ≤ 0.003 | ≤ 0.003 |  |  |  |  |  |  | 
4 | Cc1c(N2CC[C@@H](C(N)c3ccccn3)C2)c(F)c(N)c2c(=O)c(C(=O)O)cn([C@@H]3C[C@@H]3F)c12 (stereo partly drawn) [Example 17, 5-Amino-7-{3-(R)-[1-amino-1-(2-pyridyl)methyl]-1-pyrrolidiny}-6-fluoro-1-[(1R, 2S)-2-fluorocyclopropyl)-1,4-dihydro-8-methyl-4-oxoquinoline-3-carboxylic acid] |  |  |  |  |  |  |  |  |  |  |  |  |  |  | 0.013 (≈ 0.0277 µM) | 0.1 (≈ 0.213 µM) | 0.006 µg/mL (≈ 0.0128 µM) | ≦0.003 μg/ml | 0.2 (≈ 0.426 µM) | 0.05 (≈ 0.106 µM) | MIC ([7]; Ser. marcescens 10100): 0.1 µg/mL (≈ 0.213 µM); MIC [8]: ≦0.003 μg/ml; MIC ([9]; X. maltophilia IID 1275): 0.05 µg/mL (≈ 0.106 µM); MIC ([10]; E. faecalis ATCC 19433): 0.025 µg/mL (≈ 0.0532 µM); MIC [11]: 0.05 µg/mL (≈ 0.106 µM); MIC [12]: ≦0.003 μg/ml; MIC [13]: ≦0.003 μg/ml; MIC [14]: ≦0.003 μg/ml
5 | Nc1c(F)c(N2CC[C@@H](C(N)c3ccccn3)C2)c(F)c2c1c(=O)c(C(=O)O)cn2[C@@H]1C[C@@H]1F (stereo partly drawn) [Example 16] |  |  |  |  |  |  |  |  |  |  |  |  |  |  | 0.006 (≈ 0.0127 µM) | 0.05 (≈ 0.106 µM) | ≦0.003 μg/ml | ≦0.003 μg/ml | 0.2 (≈ 0.422 µM) | 0.025 (≈ 0.0528 µM) | MIC ([7]; Ser. marcescens 10100): 0.1 µg/mL (≈ 0.211 µM); MIC [8]: ≦0.003 μg/ml; MIC ([9]; X. maltophilia IID 1275): 0.1 µg/mL (≈ 0.211 µM); MIC ([10]; E. faecalis ATCC 19433): 0.013 µg/mL (≈ 0.0275 µM); MIC [11]: 0.025 µg/mL (≈ 0.0528 µM); MIC [12]: ≦0.003 μg/ml; MIC [13]: ≦0.003 μg/ml; MIC [14]: ≦0.003 μg/ml
6 | COc1c(N2CC[C@@H](C(N)c3ccccc3)C2)c(F)cc2c(=O)c(C(=O)O)cn([C@@H]3C[C@@H]3F)c12 (stereo partly drawn) [Example 3, 7-[3-(R)-(1-Amino-1-Phenylmethyl)-1-Pyrrolidinyl]-6-Fluoro-1-[2-(S)-Fluoro-1-(R)-Cyclopropyl]-1,4-Dihydro-8-Methoxy-4-Oxoquinoline-3-Carboxylic Acid] | ≤ 0.003 | 0.05 (≈ 0.106 µM) | ≤ 0.003 | ≤ 0.003 | 0.1 (≈ 0.213 µM) | 0.025 (≈ 0.0532 µM) | 0.05 (≈ 0.106 µM) | ≤ 0.003 | 0.025 (≈ 0.0532 µM) | 0.013 (≈ 0.0277 µM) | 0.025 (≈ 0.0532 µM) | ≤ 0.003 | ≤ 0.003 | ≤ 0.003 |  |  |  |  |  |  | 
